ChEMBL document CHEMBL4184312, “Discovery of novel CDK inhibitors via scaffold hopping from CAN508” (Bioorg Med Chem Lett, 2018)

Legend:
[1] = target: CDK2/Cyclin A2 (Homo sapiens) (UniProt P24941+P20248); assay: Inhibition of recombinant human CDK2/cyclin A at 10 uM using Ulight-CFFKNIVTPRTPPPSQGK-amide as substrate after 15 mins by fluorescence assay relative to control; assay type: protein-complex assay
[2] = target: CDK9/cyclin T1 (Homo sapiens) (UniProt O60563+P50750); assay: Inhibition of recombinant human CDK9/cyclin T1 at 10 uM using Ulight-CFFKNIVTPRTPPPSQGK-amide as substrate after 90 mins by fluorescence assay relative to control; assay type: protein-complex assay
CDK9/cyclin T1 = CDK9/cyclin T1 (Homo sapiens, UniProt P50750); assay: Inhibition of recombinant human CDK9/cyclin T1 using Ulight-CFFKNIVTPRTPPPSQGK-amide as substrate after 90 mins by fluorescence assay relative to control; assay type: protein-complex assay
CDK2/Cyclin A2 = CDK2/Cyclin A2 (Homo sapiens, UniProt P24941); assay: Inhibition of recombinant human CDK2/cyclin A using Ulight-CFFKNIVTPRTPPPSQGK-amide as substrate after 15 mins by fluorescence assay relative to control; assay type: protein-complex assay
Homo sapiens = species on record: Homo sapiens; assay: Selectivity ratio of IC50 for recombinant human CDK9/cyclin T1 to IC50 for recombinant human CDK2/cyclin A

CDK9/cyclin T1, sequence (O60563 whole entry): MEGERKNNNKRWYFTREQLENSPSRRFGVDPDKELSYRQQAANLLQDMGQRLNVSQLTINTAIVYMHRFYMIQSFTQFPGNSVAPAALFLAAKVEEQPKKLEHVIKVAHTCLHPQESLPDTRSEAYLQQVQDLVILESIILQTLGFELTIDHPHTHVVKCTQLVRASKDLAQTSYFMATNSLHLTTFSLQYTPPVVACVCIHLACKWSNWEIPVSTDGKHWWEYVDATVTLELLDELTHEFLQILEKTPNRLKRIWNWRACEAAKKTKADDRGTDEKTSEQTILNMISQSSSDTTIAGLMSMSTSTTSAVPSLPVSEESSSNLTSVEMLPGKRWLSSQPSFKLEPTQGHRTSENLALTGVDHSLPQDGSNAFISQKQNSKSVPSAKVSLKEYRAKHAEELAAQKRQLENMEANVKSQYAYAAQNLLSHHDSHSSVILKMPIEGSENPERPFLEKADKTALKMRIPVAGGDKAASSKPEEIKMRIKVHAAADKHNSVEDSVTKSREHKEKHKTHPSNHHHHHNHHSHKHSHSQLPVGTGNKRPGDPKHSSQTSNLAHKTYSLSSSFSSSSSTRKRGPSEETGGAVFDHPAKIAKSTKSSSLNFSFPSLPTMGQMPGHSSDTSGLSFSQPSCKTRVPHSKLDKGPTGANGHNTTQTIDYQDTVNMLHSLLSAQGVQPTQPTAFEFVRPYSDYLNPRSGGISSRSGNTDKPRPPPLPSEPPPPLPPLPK
CDK9/cyclin T1, sequence (P50750 whole entry): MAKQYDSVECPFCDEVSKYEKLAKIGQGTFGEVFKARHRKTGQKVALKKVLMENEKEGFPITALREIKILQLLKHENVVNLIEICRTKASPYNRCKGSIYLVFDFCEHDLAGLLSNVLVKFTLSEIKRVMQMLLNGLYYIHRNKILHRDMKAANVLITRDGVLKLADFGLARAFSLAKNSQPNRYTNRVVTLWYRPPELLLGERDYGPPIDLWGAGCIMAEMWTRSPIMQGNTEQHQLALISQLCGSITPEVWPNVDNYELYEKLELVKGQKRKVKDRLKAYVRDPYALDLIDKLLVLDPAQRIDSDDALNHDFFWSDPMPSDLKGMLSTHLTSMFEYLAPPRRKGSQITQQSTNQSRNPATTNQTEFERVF

Row | Structure (SMILES) | inhibition [1] | inhibition [2] | IC50 (CDK9/cyclin T1) | IC50 (CDK2/Cyclin A2) | Ratio IC50 (Homo sapiens)
1 | Nc1n[nH]c2ncc(-c3ccc(F)cc3)cc12 | 51% | 38% | – | – | –
2 | Nc1n[nH]c2ncc(-c3cncnc3)cc12 | 33% | 50% | – | – | –
3 | CCC(=O)Nc1n[nH]c2ncc(-c3ccc(O)cc3)cc12 | 90% | 70% | 2400 nM | 820 nM | –
4 | CC(C)CC(=O)Nc1n[nH]c2ncc(-c3ccc(O)cc3)cc12 | 54% | 19% | – | – | –
5 | CN(C)CCC(=O)Nc1n[nH]c2ncc(-c3ccc(O)cc3)cc12 | 59% | 48% | – | – | –
6 | Nc1n[nH]c(N)c1/N=N/c1ccc(O)cc1 | – | – | – | 13100 nM | –
7 | O=C(Nc1n[nH]c2ncc(-c3ccc([N+](=O)[O-])cc3)cc12)C1CCCCC1 | < 10% | < 10% | – | – | –
8 | CNCCC(=O)Nc1n[nH]c2ncc(-c3ccc(O)cc3)cc12 | 39% | 64% | – | – | –
9 | CNCC(=O)Nc1n[nH]c2ncc(-c3ccc(O)cc3)cc12 | 68% | 64% | – | – | –
10 | O=C(O)c1ccc(-c2cnc3[nH]nc(NC(=O)C4CCCCC4)c3c2)cc1 | < 10% | < 10% | – | – | –
11 | CN(C)CC(=O)Nc1n[nH]c2ncc(-c3ccc(O)cc3)cc12 | 52% | 56% | – | – | –
12 | O=C(Cc1ccccc1)Nc1n[nH]c2ncc(-c3ccc(O)cc3)cc12 | 70% | 25% | – | – | –
13 | O=C(CCCl)Nc1n[nH]c2ncc(-c3ccc(O)cc3)cc12 | 98% | 73% | 2400 nM | 660 nM | –
14 | O=C(Nc1n[nH]c2ncc(-c3cccc(O)c3)cc12)C1CCCCC1 | 63% | 62% | – | – | –

Next, values leading:

Row | inhibition [1] | inhibition [2] | IC50 (CDK9/cyclin T1) | IC50 (CDK2/Cyclin A2) | Ratio IC50 (Homo sapiens) | Structure (SMILES)
15 | 34% | 31% | – | – | – | O=C(Nc1n[nH]c2ncc(-c3ccc(CO)cc3)cc12)C1CCCCC1
16 | 77% | 59% | – | – | – | CC(C)(C)CC(=O)Nc1n[nH]c2ncc(-c3ccc(O)cc3)cc12
17 | 86% | 70% | 10400 nM | – | – | O=C(Nc1n[nH]c2ncc(-c3ccc(O)cc3)cc12)C1CCCCC1
18 | 58% | 48% | – | – | – | Nc1n[nH]c2ncc(-c3ccc(O)cc3)cc12
19 | 63% | 12% | 529000 nM | 2000 nM | 265 | CCC(CC)C(=O)Nc1n[nH]c2ncc(-c3ccc(O)cc3)cc12
20 | 87% | 73% | 3500 nM | – | – | CCCCC(=O)Nc1n[nH]c2ncc(-c3ccc(O)cc3)cc12
21 | < 10% | < 10% | – | – | – | CC(C)c1ccc(-c2cnc3[nH]nc(N)c3c2)cc1
22 | < 10% | 32% | – | – | – | O=C(Nc1n[nH]c2ncc(-c3ccc(F)cc3)cc12)C1CCCCC1
23 | 80% | 78% | 3600 nM | – | – | O=C(Nc1n[nH]c2ncc(-c3ccccc3O)cc12)C1CCCCC1
24 | 44% | 21% | – | – | – | O=C(CCN1CCOCC1)Nc1n[nH]c2ncc(-c3ccc(O)cc3)cc12
25 | < 10% | < 10% | – | – | – | N#Cc1ccc(-c2cnc3[nH]nc(NC(=O)C4CCCCC4)c3c2)cc1
26 | 96% | 83% | 1800 nM | 360 nM | – | O=C(Nc1n[nH]c2ncc(-c3cncnc3)cc12)C1CCCCC1
27 | < 10% | < 10% | – | – | – | COc1ccc(-c2cnc3[nH]nc(N)c3c2)cc1
28 | 51% | 49% | – | – | – | CN1CCN(CCC(=O)Nc2n[nH]c3ncc(-c4ccc(O)cc4)cc23)CC1
29 | 59% | 59% | – | – | – | O=C(Nc1n[nH]c2ncc(-c3ccncc3)cc12)C1CCCCC1
